We go through 27 compounds from ChEMBL document CHEMBL1132515, “4-Chlorobenzyl sulfonamide and sulfamide derivatives of histamine homologues: the design of potent histamine H3 receptor antagonists” (Bioorg Med Chem Lett, 1999).

Some results are limits rather than exact numbers.

Sequence of Histamine H3 receptor (Cavia porcellus) (Q9JI35 whole entry): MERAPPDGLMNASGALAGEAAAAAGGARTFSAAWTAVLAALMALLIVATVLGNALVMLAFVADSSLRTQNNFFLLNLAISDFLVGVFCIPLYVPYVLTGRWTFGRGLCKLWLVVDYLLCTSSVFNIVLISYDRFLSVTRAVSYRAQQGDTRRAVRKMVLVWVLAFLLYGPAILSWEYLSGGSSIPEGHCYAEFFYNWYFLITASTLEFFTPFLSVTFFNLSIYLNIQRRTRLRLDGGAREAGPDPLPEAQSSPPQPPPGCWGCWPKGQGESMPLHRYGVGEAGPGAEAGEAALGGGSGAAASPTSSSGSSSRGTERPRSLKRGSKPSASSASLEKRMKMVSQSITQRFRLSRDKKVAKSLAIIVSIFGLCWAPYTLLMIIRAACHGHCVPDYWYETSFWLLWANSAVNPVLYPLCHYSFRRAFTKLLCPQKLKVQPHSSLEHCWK
Sequence of Histamine H3 receptor (Q9JI35 whole entry): as above

The first assay has as its target Histamine H3 receptor (Cavia porcellus) (UniProt Q9JI35). The assay is described as follows: Inhibition of neurogenic contractions in guinea pig ileum mediated by histamine H3 receptors. The format is functional, tissue-based.
The pKB is the KB on a negative log10 scale, so that one unit is a factor of ten. Lower therefore signals a high KB. Turning to `O=S(=O)(NCCCc1c[nH]cn1)NCc1ccc(Cl)cc1`, the pKB worked out at 7.04. The compound `O=S(=O)(Cc1ccc(F)cc1)NCCCCc1c[nH]cn1` yielded a negative logarithm of the KB (pKB) of 7.32.

In turn, `O=S(=O)(NCCCCc1c[nH]cn1)NCc1ccc(I)cc1` had a pKB of 8.49. In turn, `O=S(=O)(Cc1ccc(Cl)cc1)NCCCCCCc1c[nH]cn1` came in with a pKB of 8.01. As to `O=S(=O)(NCCCCCCCCCCc1c[nH]cn1)NCc1ccc(Cl)cc1`, the pKB is less than 5. With `O=S(=O)(NCCCCc1c[nH]cn1)NCc1ccccc1Cl`, the pKB stood at 6.42.

Take `O=S(=O)(NCCCCc1c[nH]cn1)NCc1cccc(Cl)c1`: the pKB stood at 7.86. As for `O=S(=O)(Cc1ccc(Cl)cc1)NCCCCCc1c[nH]cn1`, the pKB was 7.33. Same read-out and setting: under `O=S(=O)(NCCCCc1c[nH]cn1)NCc1ccccc1` stands 7.01. As to `O=S(=O)(Cc1ccc(Cl)cc1)NCCCCCCCCc1c[nH]cn1`, the pKB came out at 6.64.

For the compound `O=S(=O)(NCCCCc1c[nH]cn1)NCc1ccc(Cl)cc1`, the pKB is 8.68. With `O=S(=O)(Cc1ccc(Cl)cc1)NCCCCc1c[nH]cn1`, the pKB came out at 8.62.

As for `O=S(=O)(NCCCCc1c[nH]cn1)NCc1ccc(C(F)(F)F)cc1`, the pKB amounted to 8.48. For `O=S(=O)(Cc1ccc(C(F)(F)F)cc1)NCCCCc1c[nH]cn1`, the pKB is 7.89.

`O=S(=O)(NCCCCc1c[nH]cn1)NCc1ccc(Br)cc1` yielded a pKB of 8.91. The compound `O=S(=O)(Cc1ccc(-c2ccccc2)cc1)NCCCCc1c[nH]cn1` gave a pKB of 8.1. Compound `O=S(=O)(Cc1ccc(Cl)cc1)NCCCc1c[nH]cn1` displayed a pKB of 6.29. With `O=S(=O)(Cc1ccc(Br)cc1)NCCCCc1c[nH]cn1`, the pKB was found to be 7.68. Compound `O=S(=O)(NCCCCCCCCc1c[nH]cn1)NCc1ccc(Cl)cc1` had a pKB of 7.37. Compound `O=S(=O)(NCCCCc1c[nH]cn1)NCc1ccc(-c2ccccc2)cc1` gave a pKB of 8.32. The same measure, in the same setting: under `O=S(=O)(NCCCCCCc1c[nH]cn1)NCc1ccc(Cl)cc1` stands 8.77; under `O=S(=O)(NCCCCCc1c[nH]cn1)NCc1ccc(Cl)cc1`, 8.2. For the compound `O=S(=O)(Cc1ccc(Cl)cc1)NCCCCCCCCCCc1c[nH]cn1`, the pKB was less than 5. On the same count and under the same terms, under `O=S(=O)(NCCCCc1c[nH]cn1)NCc1ccc(F)cc1` stands 7.7; under `O=S(=O)(Cc1ccc(Cl)cc1)NCCCCCCCc1c[nH]cn1`, 7.36.

As to `COc1ccc(CNS(=O)(=O)NCCCCc2c[nH]cn2)cc1`, the pKB came out at 7.06. Compound `O=S(=O)(NCCCCCCCc1c[nH]cn1)NCc1ccc(Cl)cc1` gave a negative logarithm of the KB (pKB) of 8.37.

The next assay has as its target Histamine H3 receptor (Cavia porcellus, UniProt Q9JI35). The assay is described as follows: Ability to displace [3H]R-alpha-methylhistamine from histamine H3 receptor in guinea pig ileum longitudinal muscle myenteric plexus(LMMP) membranes. In kind it is tissue-based.
Usually Ki stands for a dissociation constant, usually derived from enzyme kinetics or from competition with a known ligand. A low value points to higher affinity. As for `O=S(=O)(NCCCCc1c[nH]cn1)NCc1ccc(C(F)(F)F)cc1`, the Ki is 2.63 nM. On the same count and under the same terms, with `O=S(=O)(NCCCCCCCCc1c[nH]cn1)NCc1ccc(Cl)cc1` the figure was 13.2 nM.
